Test results reported in patent US6797672B2, “Fungicidal compositions based on fludioxonil” (Syngenta Crop Protection, Inc., priority 2003, dated 2004).
Where two headings read alike, the source gives them in different places.

Test system: Botrytis cinerea
Test: Efficacy against Botrytis cinerea on apple (fruit cv. Golden Delicious)
Type: in vivo
Conditions: 120 h, read-out: % activity observed
Description: A synergistic effect exists whenever the action of an active ingredient combination is greater than the sum of the actions of the individual components.
The action to be expected E for a given active ingredient combination obeys the so-called COLBY formula and can be calculated as follows (COLBY, S. R. “Calculating synergistic and antagonistic responses of herbicide combination”. Weeds, Vol. 15, pages 20-22; 1967):
ppm=milligrams of active ingredient (=a.i.) per litre of spray mixture
X=% action by active ingredient I using p ppm of active ingredient
Y=% action by active ingredient II using q ppm of active ingredient.
According to Colby, the expected (additive) action of active ingredients I+II using p+q ppm of active ingredient is [formula]
If the action actually observed (O) is greater than the expected action (E), then the action of the combination is superadditive, i.e. there is a synergistic effect.
In an apple fruit cv. Golden Delicious 3 holes were drilled and each filled with 50 μl droplets of the formulated test composition. Two hours after application 50 μl of a spore suspension of B. cinerea (4×10^5 conidia/ml) were pipetted on the application sites. After an incubation period of 5 days at 20° C. in a growth chamber the % infected fruit area was determined. The activity was calculated relative to the disease rate on untreated apple fruits. The fungicide interactions in the mixture were calculated according to Colby.

Work on N#Cc1c[nH]cc1-c1cccc2c1OC(F)(F)O2 [Fludioxonil, 4-(2,2-difluoro-1,3-benzodioxol-7-yl)pyrrole-3-carbonitrile] yielded an inhibition at 0.1 µg/mL of 2%, an inhibition at 0.5 µg/mL of 24% and an inhibition at 2.5 µg/mL of 54%. The inhibition at 5 µg/mL was 67%.

c1ccc2[nH]c(-c3cscn3)nc2c1 [Thiabendazole, 2-(thiazol-4-yl)benzimidazol] was tested, and the inhibition at 0.5 µg/mL (Thiabendazole 0.5 mg a.i./l, apple, 5 days at 20° C.) was 5%, the inhibition at 1 µg/mL (Thiabendazole 1 mg a.i./l, apple, 5 days at 20° C.) was 10% and the inhibition at 2.5 µg/mL (Thiabendazole 2.5 mg a.i./l, apple, 5 days at 20° C.) was 10%. It also gave an inhibition at 5 µg/mL (Thiabendazole 5 mg a.i./l, apple, 5 days at 20° C.) of 12% and an inhibition at 25 µg/mL (Thiabendazole 25 mg a.i./l, apple, 5 days at 20° C.) of 5%.
